Entries after “also recorded” stand apart in the source; their conditions may differ.
Columns and labels:
[1] = system: iPSC-derived NKX2-1GFP+ lung progenitors; experiment: Post-specification patterning of hPSC-derived lung progenitors, treatment day 15 to 19, RT-qPCR/flow cytometry of NKX2-1GFP+ cells; format: cell-based, human
Procedure: Measurement of mRNA expression by reverse transcriptase quantitative real time PCR (RT-qPCR) was performed as previously described(Longmire et al., 2012). Briefly, RNA was extracted from cells using a QIAzol Lysis Reagent (Qiagen, Venlo, Netherlands) and 150 ng of RNA was transcribed to cDNA using reverse transcription reagents (Applied Biosystems). Real time PCR (qPCR) was performed using TaqMan Fast Universal PCR Master Mix (ThermoFisher) and TaqMan (Applied Biosystems) reagents. The cDNA was diluted 1:3 and 2 μL of cDNA was added to each 25 μL (for Applied Biosystems StepOne 96-well System) or 12.5 μL (for Applied Biosystems QuantStudio7 384-well system) qPCR reaction. Each sample was run in technical triplicates and cycle (Ct) values were averaged between triplicates for analysis. Relative gene expression, normalized to 18S control, was calculated as fold change in 18S-normalized gene expression, compared to baseline, using the 2^(−ΔΔCT) method. Baseline, defined as fold change=1, was set to undifferentiated iPSC levels, or if undetected, a cycle number of 40 was assigned to allow fold change calculations. Adult lung control RNA was extracted from a normal lung biopsy sample. Primers were all TaqMan probes purchased from Applied Biosystems. Specifics of primers used are detailed in Table 1.
Day 14-16 cells from the lung progenitor directed differentiation protocol were harvested with 0.05% Trypsin-EDTA (Invitrogen) and replated in clumps in either Matrigel-coated tissue culture dishes in two-dimensional culture or in three-dimensional Matrigel drops. Matrigel drops were formed by resuspending cell clumps directly in undiluted Matrigel matrix, pipetting 50-100 μL into each well, and allowing the Matrigel/cell mixture to gel for 30 minutes at 37° C. Cell drops were then covered completely with growth medium.
Post-specification culture conditions were determined by the addition of growth factors to cSFDM. For patterning experiments, growth factors were added to a base media containing 10 ng/mL rhFGF10 (“Base”) and additional factors detailed in the results text. For concentrations of growth factors required for each experiment, see Table 2. Cells were additionally cultured with 10 μM Y-27632 (Tocris) for 24 hours after replating. Doses of growth factors were determined based on previously published directed differentiation protocols (Huang et al., 2013; Kurmann et al., 2015; Longmire et al., 2012) as well as dose-response experiments using 7XTCF lentiviral reporters for CHIR99021 (Figure S2d-e). […]
To test whether the inventors could efficiently induce a proximal vs distal program in iPSC-derived lung progenitors, the inventors modulated key developmental pathways beginning on day 15 of differentiation in our model system (FIG. 1C-1E), and monitored changes in SOX2 and SOX9 expression that are due to coordinated proximal vs distal patterning changes in purified NKX2-1^GFP+ cells within 4 days of treatment. At day 15, post-lung specification, the inventors cultured cells in a base media of “low dose” (10 ng/mL) FGF10 to promote proliferation without strongly inducing patterning(Volckaert et al., 2013). From this base media, the inventors stimulated the following pathways: Wnt signaling via the potent GSK3β inhibitor CHIR99021, hereafter CHIR; FGF signaling using FGF2 or high dose (100 ng/mL) FGF10; BMP signaling using BMP4; and TGFβ signaling using TGFβ

[2] = system: iPSC-derived NKX2-1+ lung progenitors; experiment: Immunofluorescence and intracellular flow cytometry for NKX2-1, SOX2, SOX9, P63 coexpression at day 19; format: cell-based, human
Procedure: Cells were harvested for intracellular flow cytometry and fixed for 10-20 minutes at 37° C. in fresh 1.6% paraformeldehyde. Cells were permeabilized with Cell Permeabilization Buffer (eBioscience, San Diego, Calif.) containing 4% normal donkey serum (Sigma) in PBS and stained with primary antibody for NKX2-1 (Abcam # ab76013, rabbit EP1584Y, 1:100) or a conjugated antibody for SOX2 (BD #561506, PerCP-Cy5.5 conjugated, mouse O30-678, 1:100). Anti-NKX2-1 antibody was detected by secondary antibody stainings with either Cy3, Alexa Fluor 488, or Alexa Fluor 647 fluorophore-conjugated secondary antibodies (AffiniPure Donkey Anti-Rabbit IgG (H+L); 1:500; Jackson ImmunoResearch, West Grove, Pa.). Stained cells were analyzed on a FacsCalibur instrument (BD Biosciences, San Jose, Calif.) and data was analyzed with FlowJo software (Ashland, Oreg.).
Cells for immunofluorescence microscopy were cultured on glass coverslips (ThermoFisher). Cultured cells were fixed with fresh 4% paraformeldehyde and stained as described previously(Kurmann et al., 2015). Briefly, cells were permeabilized with 0.3% Triton-X (Sigma) for 10 minutes at room temperature then blocked with 4% normal donkey serum (Sigma) for 30 minutes at room temperature. Cells were incubated with primary antibodies (detailed in Key Resources Table 3) overnight at 4° C., washed, and incubated with secondary antibodies for 30-60 minutes at room temperature. All secondary antibodies were conjugated to Alexa Fluor 488, Cy3, or Alexa Fluor 647 (Jackson Immunoresearch, 1:500). After antibody staining, nuclei were stained with Hoescht dye (ThermoFisher, 1:500). Coverslips with cells were mounted on glass slides using Prolong Diamond Anti-Fade Mounting Reagent (ThermoFisher) and imaged on a Nikon (Tokyo, Japan) deconvolution microscope.
Quantification of nuclear colocalization was performed using Nikon NIS Elements software using the Object Count function. 3-5 areas from each slide were analyzed for each replicate. The total image area where NKX2-1 and SOX2 or P63 overlapped was divided by the area containing only the NKX2-1 stain.

[3] = system: iPSC-derived anterior foregut endoderm cells; experiment: Lung specification from anterior foregut endoderm with or without CHIR (NKX2-1GFP flow cytometry, 7XTCF-mCherry reporter); format: cell-based, human
[4] = system: 7XTCF-mCherry Wnt reporter in FG293 cells; experiment: Lentiviral 7XTCF-mCherry Wnt reporter dose-response in FG293 cells; details: 3 μM CHIR
[5] = NKX2-1GFP+ sorted cells on day 19 after treatment day 15-19, vs base media (10 ng/mL FGF10), RT-qPCR
[6] = in response to CHIR withdrawal day 15-19, within 4 days

`Cc1c[nH]c(-c2cnc(NCCNc3ccc(C#N)cn3)nc2-c2ccc(Cl)cc2Cl)n1` [CHIR, CHIR99021] was tested, and the “expression of Wnt signaling responsive genes LEF1, NKD1, AXIN2” value ([1]; CHIR withdrawal day 15-19, day 19) was “reduced expression”, the “lentiviral TCF-driven reporter (7XTCF-mCherry) expression” value ([1]; CHIR withdrawal day 15-19, day 19, NKX2-1+ cells) was “reduced” and the “SCGB3A2 mRNA expression” value [1, 5] was “decreased expression”. For the same compound, the “SOX2 mRNA expression” value [1, 5] was “significantly decreased”, the “SOX9 mRNA expression” value [1, 5] was “increased” and the “expression of distal markers SOX9 and ETV5” value [1, 6] was “downregulated; also recorded: decreased expression”. For the same compound, the “expression of proximal airway markers (SCGB3A2, TP63/P63, MUC5AC)” value [1, 6] was “upregulated; also recorded: significantly increased expression”, the “percentage of NKX2-1GFP+ cells by day 19” value ([1]; withdrawal of CHIR from day 15 to 19, flow cytometry) was “significantly decreased percentage” and the “cells co-expressing NKX2-1 and P63” value ([2]; CHIR withdrawal day 15-19 (FGF10 alone) vs CHIR, immunofluorescence) was “increased frequencies; also recorded: significantly increased coexpression”. The “percentage of cells coexpressing NKX2-1 and SOX2” value ([2]; CHIR withdrawal day 15-19 vs CHIR) was “significantly higher percentage; also recorded: small but significant increase”, the “NKX2-1+ population expressing SOX2” value ([2]; CHIR-treated day 15-19, intracellular flow cytometry, without CHIR 68.0±4.1%) was 54.9±5.5% and the “SOX2+ cells among NKX2-1+ cells” value ([2]; day 19, with CHIR (also without CHIR)) was > 50%. The “NKX2-1+ cells that were SOX9+” value ([2]; sustained CHIR day 15-19, triple immunostaining, 4 days after withdrawal of CHIR <40%) was > 90%, the “rescue of NKX2-1GFP expression by later addition” value ([3]; cells differentiated without CHIR to day 15) was “could not be rescued” and the “NKX2-1GFP expression during lung specification” value ([3]; presence of CHIR vs without, as early as 48 h after initiation of specification, maintained until at least day 15) was “significantly higher levels”. For the same compound, the “7TC (7XTCF-mCherry) reporter expression” value ([3]; specification media with CHIR vs vehicle alone, normalized to Ef1aL-mCherry) was “rapid upregulation”, the “Wnt activation (lentiviral TCF reporter)” value [4] was “induce Wnt activation” and the cytotoxicity [4] was “without significant cytotoxicity”.

Reference: US10590392B2, “Generation of airway epithelial organoids from human pluripotent stem cells” (TRUSTEES OF BOSTON UNIVERSITY, priority 2017, dated 2020)
